Molecules are shown by their SMILES. Values joined by “and” are separate entries in the source; they are usually repeats but may differ in a detail not shown here. Equal values may be shown once. Read-outs that look alike come from different tables or passages of the source. A value given as a limit tells only on which side of the number the result lay.

The target of assay [1] is T1, recombinant MPO (Homo sapiens, UniProt P05164).
T1 construct: made in house
T1 sequence (P05164 49-745): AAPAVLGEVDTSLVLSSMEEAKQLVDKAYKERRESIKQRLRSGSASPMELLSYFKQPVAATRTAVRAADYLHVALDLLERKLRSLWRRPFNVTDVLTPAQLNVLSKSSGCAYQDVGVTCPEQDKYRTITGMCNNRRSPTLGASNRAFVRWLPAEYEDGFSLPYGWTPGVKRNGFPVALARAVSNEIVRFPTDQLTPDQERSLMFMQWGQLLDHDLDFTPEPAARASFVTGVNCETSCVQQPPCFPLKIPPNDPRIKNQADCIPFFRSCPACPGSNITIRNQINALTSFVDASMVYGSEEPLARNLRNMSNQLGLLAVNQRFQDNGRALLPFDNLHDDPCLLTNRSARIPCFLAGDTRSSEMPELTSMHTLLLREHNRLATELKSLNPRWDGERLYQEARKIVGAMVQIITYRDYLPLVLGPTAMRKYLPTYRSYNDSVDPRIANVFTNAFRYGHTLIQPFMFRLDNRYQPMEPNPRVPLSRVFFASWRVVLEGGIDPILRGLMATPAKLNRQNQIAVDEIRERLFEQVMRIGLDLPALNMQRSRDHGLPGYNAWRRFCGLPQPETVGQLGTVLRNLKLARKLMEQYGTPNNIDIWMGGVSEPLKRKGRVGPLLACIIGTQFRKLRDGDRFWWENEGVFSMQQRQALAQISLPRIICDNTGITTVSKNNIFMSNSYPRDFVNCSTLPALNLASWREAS
As to the kind of experiment: Myeloperoxidase inhibition assay (taurine chloramine). Conditions: pure compounds, read-out: IC50 (μM) ± SD for MPO. It counts as biochemical. How it is done:
The recombinant MPO was produced as previously described Moguilevsky et al. and each batch solution was characterized by its protein concentration (mg/mL), its activity (U/mL), and its specific activity (U/mg). The chlorination activity was determined according to Hewson and Hager, (1979). Human plasma served for the isolation of LDL by ultracentrifugation according to Havel et al. (1955). Before oxidation, the LDL fraction (1.019 < d < 1.067 g/mL) was desalted by two consecutive passages through PD10 gel-filtration columns (Amersham Biosciences, Hoevelaken, The Netherlands) using PBS buffer. The different steps were carried out in the dark, and the protein concentration was measured by the Lowry assay for both MPO and LDL [57].
The assay was based on the production of taurine chloramine by the MPO/H2O2/Cl^− system which can be determined by means of 5-thio-2-nitrobenzoic acid (TNB) in the presence of a selected inhibitor at defined concentration. The reaction mixture contained the following reagents in a final volume of 200 μL:pH 7.4 phosphate buffer (10 mM PO4^3−/300 mM NaCl), taurine (15 mM), extraction solutions of propolis, and the fixed amount of the recombinant MPO (6 μL of MPO batch solution diluted 2.5 times, 40 nM). When necessary, the volume was adjusted with water. This mixture was incubated at 37 °C and the reaction initiated with 10.0 μL of H2O2 (100 μM). After 5 min, the reaction was stopped by the addition of 10 μL of catalase (8 U/μL). To determine the amount of taurine chloramines produced, 50 μL of 1.35 mM solution of TNB were added and the volume adjusted to 300 μL with water. Then, the absorbance of the solutions was measured at 412 nm with a microplate reader and the curve of the absorbance as a function of the inhibitor concentration was plotted. To remove the influence of HOCl scavenging carried out by the extracts, the same procedure of MPO inhibition assay was done but with addition of 6 μL of HOCl (60 μM) instead of the solution of MPO and H2O2.

For assay [2], the target named is T1, recombinant MPO. Conditions: stated among literature reports, no reference given; cited from earlier work.

On to `COc1ccc(-c2cc(=O)c3c(O)cc(O)cc3o2)cc1` [Acacetin], for which the IC50 in assay [1] was found to be 9 ± 2 µM.
Still for that read-out and setting: then `O=C(O)/C=C/c1ccc(O)c(O)c1` [Caffeic acid], with greater than 10 µM; and `O=c1cc(-c2ccccc2)oc2cc(O)cc(O)c12` [Chrysin], with 8 ± 2 µM.
Same read-out and setting: in the case of `O=C(O)/C=C/c1ccccc1` [Cinnamic acid] it was 9 ± 4 µM; in that of `COc1cc(/C=C/C(=O)O)ccc1O` [Ferulic acid], 6 ± 3 µM.
On the same count and under the same terms, in the case of `O=c1c(O)c(-c2ccccc2)oc2cc(O)cc(O)c12` [Galangin] it was greater than 10 µM; in that of `O=c1c(-c2ccc(O)cc2)coc2cc(O)cc(O)c12` [Genistein], greater than 10 µM; in that of `O=c1c(O)c(-c2ccc(O)cc2)oc2cc(O)cc(O)c12` [Kaempferol], 4.1 µM and 4 µM.
`O=c1c(O)c(-c2ccc(O)c(O)c2)oc2cc(O)cc(O)c12` [Quercetin]: the IC50 in assay [2] was roughly 5 µM.
`CC(C)c1c(O)ccc2c1CC[C@H]1C(C)(C)CCC[C@]21C` [Totarol]: the IC50 in assay [1] is greater than 10 µM.

Usually IC50 stands for the midpoint of a concentration-inhibition curve.
